Experimental data reported in article PMC5209447, “Aryl-1,3,5-triazine ligands of histamine H4 receptor attenuate inflammatory and nociceptive response to carrageen, zymosan and lipopolysaccharide” (Inflammation Research, 2016).

Target: T1, phosphodiesterase 4B1 (PDE 4B1) (Homo sapiens, UniProt Q07343)
T1 construct: gene PDE4B; PDE 4B1 (BPS Biosciences)
Experiment: PDELight bioluminescent cAMP phosphodiesterase assay, % inhibition at […]
Type: biochemical
Details: read-out: PDE 4B1 inhibition (%) ± SEM

T1 sequence (Q07343 whole entry): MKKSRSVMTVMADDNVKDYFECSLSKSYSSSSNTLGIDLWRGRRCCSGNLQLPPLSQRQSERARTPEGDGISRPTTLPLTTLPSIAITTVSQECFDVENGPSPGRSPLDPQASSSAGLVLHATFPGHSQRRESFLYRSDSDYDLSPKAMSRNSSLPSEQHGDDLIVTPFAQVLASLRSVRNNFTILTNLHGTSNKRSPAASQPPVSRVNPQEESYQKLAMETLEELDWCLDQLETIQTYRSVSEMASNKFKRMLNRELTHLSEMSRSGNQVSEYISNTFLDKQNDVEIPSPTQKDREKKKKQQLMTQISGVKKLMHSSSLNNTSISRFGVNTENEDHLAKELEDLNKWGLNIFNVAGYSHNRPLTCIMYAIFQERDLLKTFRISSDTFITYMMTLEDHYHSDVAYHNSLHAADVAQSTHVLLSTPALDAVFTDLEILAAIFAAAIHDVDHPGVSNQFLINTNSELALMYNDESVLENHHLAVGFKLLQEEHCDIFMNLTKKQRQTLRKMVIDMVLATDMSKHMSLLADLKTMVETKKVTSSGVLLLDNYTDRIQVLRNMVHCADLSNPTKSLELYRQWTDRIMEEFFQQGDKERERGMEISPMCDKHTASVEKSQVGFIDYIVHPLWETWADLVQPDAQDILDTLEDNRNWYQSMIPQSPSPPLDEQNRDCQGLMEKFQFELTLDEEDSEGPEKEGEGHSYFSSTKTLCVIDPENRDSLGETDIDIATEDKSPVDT

Row | inhibition at 100 µM [%] | Compound | inhibition at 50 µM [%]
1 |  | COc1ccc(C2CNC(=O)C2)cc1OC1CCCC1 (centres unmarked) [Rolipram] | 95
2 | 31 ± 0.5 | Nc1nc(N)nc(-c2cc(Cl)ccc2Cl)n1 [Irsogladine] | 
